Legend:
[1] = target: Human fibroblast stromelysin (HFS) (Homo sapiens, UniProt P08254); assay: biochemical
[2] = target: Human neutrophil collagenase (HNC) (Homo sapiens, UniProt P22894); assay: Human Neutrophil Collagenase Assay; type: biochemical; conditions: fluorogenic peptide substrate, 96-well plate in duplicate; reference inhibitor
Chain of Human neutrophil collagenase (HNC) (P22894 101-467): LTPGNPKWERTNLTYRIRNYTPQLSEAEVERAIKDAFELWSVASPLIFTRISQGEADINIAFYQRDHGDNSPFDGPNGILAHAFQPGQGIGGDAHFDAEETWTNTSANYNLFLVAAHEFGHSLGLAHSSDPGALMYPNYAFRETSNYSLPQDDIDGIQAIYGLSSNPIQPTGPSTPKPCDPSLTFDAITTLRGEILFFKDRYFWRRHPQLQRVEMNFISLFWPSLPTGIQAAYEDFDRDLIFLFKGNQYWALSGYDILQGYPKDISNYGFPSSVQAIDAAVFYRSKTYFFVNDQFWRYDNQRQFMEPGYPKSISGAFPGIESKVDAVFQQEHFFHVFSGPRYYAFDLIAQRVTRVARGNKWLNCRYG

Chain of Human fibroblast stromelysin (HFS) (P08254 100-477): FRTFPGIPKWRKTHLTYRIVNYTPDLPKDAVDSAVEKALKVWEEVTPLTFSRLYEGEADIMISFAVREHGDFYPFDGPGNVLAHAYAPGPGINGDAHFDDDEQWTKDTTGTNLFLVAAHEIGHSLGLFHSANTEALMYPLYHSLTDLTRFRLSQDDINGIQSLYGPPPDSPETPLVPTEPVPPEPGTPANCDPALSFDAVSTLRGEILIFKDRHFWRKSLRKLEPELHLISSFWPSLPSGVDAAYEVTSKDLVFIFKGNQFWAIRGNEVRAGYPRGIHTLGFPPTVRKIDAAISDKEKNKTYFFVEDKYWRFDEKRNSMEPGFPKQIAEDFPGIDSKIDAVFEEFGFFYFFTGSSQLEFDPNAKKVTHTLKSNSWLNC

Ki [1]: 722 nM | Ki [2]: 722 nM
Compound: CCCCC[C@H](CC(=O)NO)C(=O)N[C@H](C(=O)N1CCC[C@H]1CO)C(C)C [Actinonin]

Source: patent publication US7022690B2, “Carboxylic acid substituted heterocycles, derivatives thereof and methods of use” (Amgen Inc., priority 1997, dated 2006)
